Test results from ChEMBL document CHEMBL4823324, “Discovery of BMS-986318, a Potent Nonbile Acid FXR Agonist for the Treatment of Nonalcoholic Steatohepatitis” (ACS Med Chem Lett, 2021).

Key:
Cytochrome P450 2C8 = target: T1, Cytochrome P450 2C8 (Homo sapiens, UniProt P10632); assay: Inhibition of CYP2C8 (unknown origin) expressed in baculovirus infected insect supersomes preincubated for 15 mins followed by addition of NADPH regenerating system and measured after 2 hrs by fluorescence based analysis; format: ADME
T1 sequence (P10632 whole entry): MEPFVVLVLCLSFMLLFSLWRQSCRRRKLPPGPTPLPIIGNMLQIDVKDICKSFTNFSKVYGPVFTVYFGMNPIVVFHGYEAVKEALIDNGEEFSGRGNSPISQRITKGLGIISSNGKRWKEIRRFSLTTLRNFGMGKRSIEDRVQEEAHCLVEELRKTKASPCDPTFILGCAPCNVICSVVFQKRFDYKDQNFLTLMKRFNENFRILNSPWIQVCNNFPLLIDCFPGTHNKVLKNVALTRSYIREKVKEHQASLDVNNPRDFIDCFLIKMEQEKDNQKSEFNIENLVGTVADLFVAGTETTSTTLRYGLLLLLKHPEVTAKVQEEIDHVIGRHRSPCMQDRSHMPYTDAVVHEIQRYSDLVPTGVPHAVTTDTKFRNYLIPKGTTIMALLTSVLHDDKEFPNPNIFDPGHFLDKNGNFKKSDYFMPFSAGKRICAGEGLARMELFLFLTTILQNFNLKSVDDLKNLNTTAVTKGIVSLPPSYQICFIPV

Cytochrome P450 3A4 = Cytochrome P450 3A4 (Homo sapiens, UniProt P08684); assay: Inhibition of CYP3A4 (unknown origin) expressed in baculovirus infected insect supersomes preincubated for 15 mins followed by addition of NADPH regenerating system by fluorescence based analysis; format: ADME
Sequence of Cytochrome P450 3A4 (P08684 whole entry): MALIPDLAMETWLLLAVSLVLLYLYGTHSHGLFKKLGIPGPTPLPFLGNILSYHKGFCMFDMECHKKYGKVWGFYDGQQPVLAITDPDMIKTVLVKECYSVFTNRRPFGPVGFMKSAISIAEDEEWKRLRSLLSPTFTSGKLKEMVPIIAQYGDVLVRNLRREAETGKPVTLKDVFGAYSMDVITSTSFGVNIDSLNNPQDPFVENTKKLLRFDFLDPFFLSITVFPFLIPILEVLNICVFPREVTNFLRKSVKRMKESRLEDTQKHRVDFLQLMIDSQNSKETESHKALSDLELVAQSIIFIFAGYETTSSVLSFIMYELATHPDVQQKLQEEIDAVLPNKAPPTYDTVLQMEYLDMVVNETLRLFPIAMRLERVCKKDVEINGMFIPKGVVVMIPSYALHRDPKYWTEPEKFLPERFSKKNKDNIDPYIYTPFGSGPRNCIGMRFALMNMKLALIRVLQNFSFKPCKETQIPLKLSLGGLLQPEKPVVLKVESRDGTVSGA

[1] = target: T2, Oxysterols receptor LXR-alpha (Homo sapiens, UniProt Q13133); assay: Activation of human LXRalpha co-expressed with TK-luciferase reporter in African green monkey CV-1 cells incubated for overnight by Steady-Glo luciferase reporter gene based luminescence analysis; format: cell-based
T2 sequence (Q13133 whole entry): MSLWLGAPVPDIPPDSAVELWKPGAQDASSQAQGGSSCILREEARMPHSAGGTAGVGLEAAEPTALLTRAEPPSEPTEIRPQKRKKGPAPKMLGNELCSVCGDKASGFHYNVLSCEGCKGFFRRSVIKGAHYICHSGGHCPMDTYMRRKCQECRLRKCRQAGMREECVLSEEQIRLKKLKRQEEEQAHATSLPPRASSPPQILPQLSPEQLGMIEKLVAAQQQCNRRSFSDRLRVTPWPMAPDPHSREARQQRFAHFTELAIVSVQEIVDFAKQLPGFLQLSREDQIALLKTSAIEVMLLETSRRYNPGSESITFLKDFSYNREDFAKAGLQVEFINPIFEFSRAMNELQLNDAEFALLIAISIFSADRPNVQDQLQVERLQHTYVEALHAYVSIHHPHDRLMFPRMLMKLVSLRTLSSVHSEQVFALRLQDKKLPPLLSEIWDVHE

Progesterone receptor = target: T3, Progesterone receptor (Homo sapiens, UniProt P06401); assay: Activation of progesterone receptor (unknown origin) by fluorescence polarization based competition assay
T3 sequence (P06401 whole entry): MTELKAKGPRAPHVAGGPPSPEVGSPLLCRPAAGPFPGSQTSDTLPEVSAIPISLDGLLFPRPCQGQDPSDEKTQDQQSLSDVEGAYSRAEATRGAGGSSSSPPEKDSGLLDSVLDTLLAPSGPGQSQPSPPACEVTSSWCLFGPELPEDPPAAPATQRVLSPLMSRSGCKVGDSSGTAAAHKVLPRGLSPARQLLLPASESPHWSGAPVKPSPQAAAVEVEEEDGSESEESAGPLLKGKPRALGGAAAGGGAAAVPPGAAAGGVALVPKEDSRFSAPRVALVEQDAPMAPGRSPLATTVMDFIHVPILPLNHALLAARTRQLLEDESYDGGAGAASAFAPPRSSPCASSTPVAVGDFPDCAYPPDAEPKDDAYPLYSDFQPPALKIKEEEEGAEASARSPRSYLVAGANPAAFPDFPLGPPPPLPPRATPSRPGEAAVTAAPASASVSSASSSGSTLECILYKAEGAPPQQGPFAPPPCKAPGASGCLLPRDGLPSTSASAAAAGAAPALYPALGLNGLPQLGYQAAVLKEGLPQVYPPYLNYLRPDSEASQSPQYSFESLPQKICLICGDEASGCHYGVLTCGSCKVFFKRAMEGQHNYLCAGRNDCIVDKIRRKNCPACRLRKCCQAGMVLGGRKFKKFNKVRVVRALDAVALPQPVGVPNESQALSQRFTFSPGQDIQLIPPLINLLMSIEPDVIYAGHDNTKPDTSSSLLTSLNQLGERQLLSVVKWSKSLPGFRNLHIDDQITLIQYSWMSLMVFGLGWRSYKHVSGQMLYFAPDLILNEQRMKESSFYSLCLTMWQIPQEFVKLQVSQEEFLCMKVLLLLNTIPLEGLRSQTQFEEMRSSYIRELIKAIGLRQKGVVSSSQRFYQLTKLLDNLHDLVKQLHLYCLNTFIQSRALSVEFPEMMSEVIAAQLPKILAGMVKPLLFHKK

[2] = Cmax in C57B6 mouse at 2 mg/kg, po administered as solution; format: ADME, organism-based; parameters: route oral, dose 2 mg/kg; conditions: in vivo
[3] = AUC in C57B6 mouse at 1 mg/kg, iv; format: ADME, organism-based; parameters: dose 1 mg/kg; conditions: in vivo
[4] = AUC in C57B6 mouse at 2 mg/kg, po administered as solution; format: ADME, organism-based; parameters: dose 2 mg/kg; conditions: in vivo
[5] = AUC in C57B6 mouse at 2 mg/kg, po administered as suspension; format: ADME, organism-based; parameters: dose 2 mg/kg; conditions: in vivo
[6] = Half life in C57B6 mouse at 2 mg/kg, po administered as solution; format: ADME, organism-based; conditions: in vivo
[7] = Oral bioavailability in C57B6 mouse at 2 mg/kg administered as solution; format: ADME, organism-based; conditions: in vivo
[8] = Oral bioavailability in C57B6 mouse at 2 mg/kg administered as suspension; format: ADME, organism-based; conditions: in vivo
[9] = target: T4, Nuclear receptor ROR-alpha (Homo sapiens, UniProt P35398); assay: Agonist activity at human RORalpha (272 to 557 residues) co-expressed with Gal4-luciferase reporter in human Jurkat cells incubated for 18 hrs by Steady-Glo luciferase reporter based luminescence analysis; format: cell-based
T4 sequence (P35398 whole entry): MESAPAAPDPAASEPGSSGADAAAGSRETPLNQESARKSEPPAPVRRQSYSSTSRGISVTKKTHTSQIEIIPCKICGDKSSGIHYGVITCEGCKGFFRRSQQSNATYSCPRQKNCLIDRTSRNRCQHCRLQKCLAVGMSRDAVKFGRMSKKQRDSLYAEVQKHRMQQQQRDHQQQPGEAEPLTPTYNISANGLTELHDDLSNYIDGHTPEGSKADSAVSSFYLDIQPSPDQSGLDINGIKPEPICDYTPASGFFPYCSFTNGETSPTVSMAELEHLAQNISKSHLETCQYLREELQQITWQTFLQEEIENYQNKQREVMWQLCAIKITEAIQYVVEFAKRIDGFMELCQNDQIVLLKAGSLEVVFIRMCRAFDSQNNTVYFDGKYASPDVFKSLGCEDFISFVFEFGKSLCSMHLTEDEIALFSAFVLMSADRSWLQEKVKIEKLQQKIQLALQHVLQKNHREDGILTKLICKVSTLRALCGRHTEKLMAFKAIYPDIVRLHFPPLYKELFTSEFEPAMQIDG

For O=C(O)c1cc(C(F)(F)F)c2cc(N3CCC4(C=C(c5c(-c6c(Cl)cncc6Cl)noc5C5CC5)C4)CC3)ccc2n1, the IC50 (Cytochrome P450 2C8) was 4.2 µM, the IC50 (Cytochrome P450 3A4) was > 40 µM and the EC50 [1] was > 40 µM. The EC50 (Progesterone receptor) was > 40 µM, the Cmax [2] was 1220 nM and the AUC [3] was 9.32 µM·h. For the same compound, the AUC [4] was 6.65 µM·h, the AUC [5] was 4.76 µM·h and the half-life [6] was 138 min. For the same compound, the bioavailability [7] was 36%, the bioavailability [8] was 26% and the EC50 [9] was > 40 µM.
